We go through 30 compounds from BindingDB's records for patent US20190276450 (Abbvie, 2019).

Test [1] concerns the target Non-receptor tyrosine-protein kinase TYK2 (Homo sapiens, UniProt P29597). The test can be described thus: TYK2 (TYK2/JAK2 PSTAT4 T-BLAST) Alpha Screen Assay. As for the experimental part: IL-12 is known to transduce its signal through IL-12 receptor via Jak2 and/or Tyk2. For that reason, the activity against Tyk2/Jak2 was measured by determining the inhibition of IL-12 induced phosphorylation of STAT4 in T-blast cells. […] See, e.g., Sohn et al., J. Immunology (2013) 2205-2216.

Test [2] addresses Tyrosine-protein kinase JAK1 (Homo sapiens, UniProt P23458). The test can be described thus: JAK1 (PSTAT3 TF1) Alpha Screen Assay. As for the experimental part:
IL-6 is known to transduce its signal through IL-6 receptor via Jak1. Activity against Jak was therefore measured by determining inhibition of IL-6 induced phosphorylation of STAT3 in TF1 cells. From these tests, the EC50 (effective concentration for 50% maximal response) values were determined in 1 μM for the test compounds.

Test [3] concerns the target Tyrosine-protein kinase JAK2 (Homo sapiens, UniProt O60674). The test can be described thus: JAK2 (PSTAT5 UT7) Alpha Screen Assay. Here is the method: Erythropoietin (EPO) is known to transduce its signal through EPO receptor via Jak2. Activity against Jak2 was therefore measured by determining inhibition of EPO induced phosphorylation of […] in UT7 cells. From these tests, the EC50 (effective concentration for 50% maximal response) values were determined in 1 μM for the test compounds.

Chain of Tyrosine-protein kinase JAK2 (O60674 whole entry): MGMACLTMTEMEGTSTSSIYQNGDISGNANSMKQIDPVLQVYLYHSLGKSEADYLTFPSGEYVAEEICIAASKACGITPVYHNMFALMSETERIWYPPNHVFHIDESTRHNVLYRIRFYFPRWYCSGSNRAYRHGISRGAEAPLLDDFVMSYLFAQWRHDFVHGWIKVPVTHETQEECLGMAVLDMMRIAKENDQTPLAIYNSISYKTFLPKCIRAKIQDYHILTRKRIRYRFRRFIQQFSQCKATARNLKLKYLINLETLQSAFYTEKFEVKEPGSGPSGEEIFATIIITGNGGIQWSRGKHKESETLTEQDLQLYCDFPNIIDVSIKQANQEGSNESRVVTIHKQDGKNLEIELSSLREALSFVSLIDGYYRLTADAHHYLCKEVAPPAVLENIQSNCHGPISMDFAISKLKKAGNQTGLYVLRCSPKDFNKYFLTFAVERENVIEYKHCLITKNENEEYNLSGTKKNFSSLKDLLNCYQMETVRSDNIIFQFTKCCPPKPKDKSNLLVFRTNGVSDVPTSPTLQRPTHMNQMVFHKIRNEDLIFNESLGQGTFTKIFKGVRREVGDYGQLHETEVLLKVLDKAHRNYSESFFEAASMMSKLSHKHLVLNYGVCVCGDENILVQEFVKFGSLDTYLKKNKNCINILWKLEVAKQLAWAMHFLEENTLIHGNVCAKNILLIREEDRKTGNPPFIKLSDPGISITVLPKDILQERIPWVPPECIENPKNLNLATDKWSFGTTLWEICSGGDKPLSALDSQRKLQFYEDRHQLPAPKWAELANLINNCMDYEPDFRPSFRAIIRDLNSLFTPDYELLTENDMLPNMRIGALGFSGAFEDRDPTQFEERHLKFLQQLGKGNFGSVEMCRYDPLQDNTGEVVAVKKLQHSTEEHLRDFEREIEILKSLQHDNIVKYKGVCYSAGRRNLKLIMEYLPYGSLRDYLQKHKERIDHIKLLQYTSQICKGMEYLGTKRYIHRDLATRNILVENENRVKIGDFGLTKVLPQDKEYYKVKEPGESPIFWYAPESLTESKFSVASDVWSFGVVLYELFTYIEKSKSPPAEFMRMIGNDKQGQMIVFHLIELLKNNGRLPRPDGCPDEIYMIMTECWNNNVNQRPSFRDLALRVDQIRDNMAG
Chain of Tyrosine-protein kinase JAK1 (P23458 whole entry): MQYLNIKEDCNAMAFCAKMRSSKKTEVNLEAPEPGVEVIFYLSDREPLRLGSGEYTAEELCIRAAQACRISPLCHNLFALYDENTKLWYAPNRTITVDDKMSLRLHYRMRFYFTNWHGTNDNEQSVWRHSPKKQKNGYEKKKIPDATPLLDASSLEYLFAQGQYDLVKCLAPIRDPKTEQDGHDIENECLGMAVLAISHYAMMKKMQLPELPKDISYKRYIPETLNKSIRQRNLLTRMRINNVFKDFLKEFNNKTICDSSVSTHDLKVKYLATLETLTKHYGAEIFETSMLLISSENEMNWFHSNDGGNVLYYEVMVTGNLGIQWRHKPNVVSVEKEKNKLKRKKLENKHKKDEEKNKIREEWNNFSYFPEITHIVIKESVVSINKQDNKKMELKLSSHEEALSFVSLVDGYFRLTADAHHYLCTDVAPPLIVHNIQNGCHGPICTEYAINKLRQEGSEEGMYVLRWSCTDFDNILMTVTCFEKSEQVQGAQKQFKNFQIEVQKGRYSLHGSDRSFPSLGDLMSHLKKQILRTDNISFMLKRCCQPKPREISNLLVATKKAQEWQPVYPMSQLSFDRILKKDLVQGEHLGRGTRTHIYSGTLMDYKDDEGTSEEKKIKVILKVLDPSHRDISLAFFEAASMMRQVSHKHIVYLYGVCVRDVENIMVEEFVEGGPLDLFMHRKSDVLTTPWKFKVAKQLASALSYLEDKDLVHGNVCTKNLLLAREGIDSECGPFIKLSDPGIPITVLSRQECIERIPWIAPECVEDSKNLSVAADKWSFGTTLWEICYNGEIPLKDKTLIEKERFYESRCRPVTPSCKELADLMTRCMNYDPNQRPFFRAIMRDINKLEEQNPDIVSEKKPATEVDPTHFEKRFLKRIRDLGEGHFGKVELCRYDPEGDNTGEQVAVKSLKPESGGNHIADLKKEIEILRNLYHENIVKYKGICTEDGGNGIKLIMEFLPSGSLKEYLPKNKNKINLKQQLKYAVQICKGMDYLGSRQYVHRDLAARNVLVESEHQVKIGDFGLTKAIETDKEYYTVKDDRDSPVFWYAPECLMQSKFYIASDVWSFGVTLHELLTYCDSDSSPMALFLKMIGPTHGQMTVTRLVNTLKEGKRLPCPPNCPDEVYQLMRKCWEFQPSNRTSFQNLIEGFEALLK
Chain of Non-receptor tyrosine-protein kinase TYK2 (P29597 whole entry): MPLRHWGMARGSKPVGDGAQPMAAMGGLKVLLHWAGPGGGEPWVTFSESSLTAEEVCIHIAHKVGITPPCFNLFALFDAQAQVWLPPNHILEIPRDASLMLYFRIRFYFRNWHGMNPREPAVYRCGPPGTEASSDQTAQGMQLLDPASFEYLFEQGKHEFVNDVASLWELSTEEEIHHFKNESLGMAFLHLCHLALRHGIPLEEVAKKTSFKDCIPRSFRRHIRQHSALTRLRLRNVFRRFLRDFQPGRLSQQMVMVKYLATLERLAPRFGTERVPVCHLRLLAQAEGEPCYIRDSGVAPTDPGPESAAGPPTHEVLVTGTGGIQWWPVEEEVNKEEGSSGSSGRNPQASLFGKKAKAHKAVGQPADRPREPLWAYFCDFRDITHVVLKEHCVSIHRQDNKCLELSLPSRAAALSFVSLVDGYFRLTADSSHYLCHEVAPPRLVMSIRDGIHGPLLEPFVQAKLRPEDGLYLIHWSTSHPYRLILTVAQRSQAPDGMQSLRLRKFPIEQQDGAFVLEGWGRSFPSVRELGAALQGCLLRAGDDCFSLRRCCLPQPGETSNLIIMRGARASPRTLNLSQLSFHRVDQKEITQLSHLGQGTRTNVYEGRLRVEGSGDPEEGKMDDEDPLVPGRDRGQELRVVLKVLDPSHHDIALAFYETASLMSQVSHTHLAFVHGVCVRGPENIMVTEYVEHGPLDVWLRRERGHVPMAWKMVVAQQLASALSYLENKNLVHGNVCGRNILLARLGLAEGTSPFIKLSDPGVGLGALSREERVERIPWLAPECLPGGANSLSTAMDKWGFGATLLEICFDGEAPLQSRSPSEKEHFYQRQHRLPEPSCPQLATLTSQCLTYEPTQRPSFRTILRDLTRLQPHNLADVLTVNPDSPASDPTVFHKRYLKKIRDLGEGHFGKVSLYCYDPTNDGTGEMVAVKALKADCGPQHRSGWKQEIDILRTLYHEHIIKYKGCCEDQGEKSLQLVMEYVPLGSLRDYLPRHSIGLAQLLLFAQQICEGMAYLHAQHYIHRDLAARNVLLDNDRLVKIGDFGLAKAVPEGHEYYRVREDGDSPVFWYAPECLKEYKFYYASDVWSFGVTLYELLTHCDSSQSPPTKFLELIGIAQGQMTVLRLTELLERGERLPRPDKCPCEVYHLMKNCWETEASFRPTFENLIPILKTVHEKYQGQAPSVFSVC

For orientation: EC50 means the concentration needed to bring the measured effect to its halfway point. Read a high EC50 as weaker potency. Turning to `CO[C@@]1(c2cc(OC(F)F)cc(-c3cn(C)c4cnc(NC(C)=O)cc34)n2)CCOC1` [US20190276450, Example 22.2], the results for the EC50 in test [1], in test [2] and in test [3] were 0.089 µM, 35 µM and over 25 µM, respectively.
Taken in the same sequence, the figures for `COCc1cc(-c2cn(C)c3cnc(NC(C)=O)cc23)nc([C@]2(OC)CCOC2)c1` [US20190276450, Example 2] were 0.126 µM, over 40 µM and over 25 µM.
With `Cn1cc(-c2cncc([C@@]3(C)CCOC3)n2)c2cc(NC(N)=O)ncc21` [US20190276450, Example 1b.6], the figures for the EC50 in test [1], in test [2] and in test [3] were 0.195 µM, 4.2 µM and over 25 µM, respectively.
Taken in the same sequence, the figures for `Cn1cc(-c2cncc([C@]3(C)CCOC3)n2)c2cc(NC(N)=O)ncc21` [US20190276450, Example 1b.5] were 0.018 µM, 1.5 µM and over 25 µM.
Taken in the same sequence, the figures for `CC(=O)Nc1cc2c(-c3cccc([C@]4(CO)CCOC4)n3)cn(C)c2cn1` [US20190276450, Example 21] were 0.08 µM, 2.8 µM and over 25 µM.
On the same counts, the results for `COCc1cc(-c2cn(C)c3cnc(NC(C)=O)cc23)nc([C@]2(CO)CCOC2)c1` [US20190276450, Example 22] are 0.146 µM, 10.5 µM and over 25 µM.
On to `CC(=O)Nc1cc2c(-c3cc(C(F)F)cc([C@]4(CO)CCOC4)n3)cn(C)c2cn1` [US20190276450, Example 22.5], for which the values for the EC50 in test [1], in test [2] and in test [3] were 0.072 µM, 7.05 µM and over 25 µM, respectively.
On to `CO[C@@]1(c2cc(OCC3COC3)cc(-c3cn(C)c4cnc(NC(C)=O)cc34)n2)CCOC1` [US20190276450, Example 6], for which the EC50 in test [1] was 0.05 µM; in test [2], 21 µM; in test [3] it was over 25 µM.
Taken in the same sequence, the figures for `CO[C@@]1(c2cccc(-c3cn([C@@H]4CC4(F)F)c4cnc(NC(N)=O)cc34)n2)CCOC1` [US20190276450, Example 1.2] were 0.045 µM, 13.5 µM and over 25 µM.
On the same counts, the results for `CO[C@@]1(c2cc(OCCO)cc(-c3cn(C)c4cnc(NC(C)=O)cc34)n2)CCOC1` [US20190276450, Example 10] are 0.091 µM, 27 µM and over 25 µM.
On the same counts, the results for `CC[C@@]1(c2cccc(-c3cn(C)c4cnc(NC(N)=O)cc34)n2)CCOC1` [US20190276450, Example 3.2] are 0.014 µM, 3.4 µM and over 25 µM.
As for `CO[C@@]1(c2cc(C(F)F)cc(-c3cn(C)c4cnc(NC(C)=O)cc34)n2)CCOC1` [US20190276450, Example 2.8], the values for the EC50 in test [1], in test [2] and in test [3] were 0.042 µM, 17 µM and over 25 µM, respectively.
Taken in the same sequence, the figures for `CO[C@@]1(c2cc(O[C@H]3C[C@H](O)C3)cc(-c3cn(C)c4cnc(NC(C)=O)cc34)n2)CCOC1` [US20190276450, Example 11] were 0.052 µM, 23 µM and over 25 µM.
On the same counts, the results for `CO[C@@]1(c2cc(OCC[C@@H](C)O)cc(-c3cn(C)c4cnc(NC(C)=O)cc34)n2)CCOC1` [US20190276450, Example 7] are 0.878 µM, 34 µM and over 25 µM.
As to `CO[C@@]1(c2cc(C#N)cc(-c3cn([C@@H]4CC4(F)F)c4cnc(NC(C)=O)cc34)n2)CCOC1` [US20190276450, Example 2a.3], the EC50 in test [1] was 0.127 µM; in test [2], 56 µM; in test [3], over 25 µM.
In the case of `CO[C@@]1(c2cc(C(F)F)cc(-c3cn(C)c4cnc(NC(=O)CO)cc34)n2)CCOC1` [US20190276450, Example 26], the EC50 is 0.05 µM in test [1], over 25 µM in test [2] and over 25 µM in test [3].
For `CO[C@@]1(c2cc(OC[C@H](C)O)cc(-c3cn(C)c4cnc(NC(C)=O)cc34)n2)CCOC1` [US20190276450, Example 14.5], the EC50 in test [1] was 0.146 µM; in test [2], 71 µM; in test [3] it was over 25 µM.
Regarding `CO[C@@]1(c2cc(OCC[C@H](C)O)cc(-c3cn(C)c4cnc(NC(C)=O)cc34)n2)CCOC1` [US20190276450, Example 9], the EC50 in test [1] is 0.085 µM; in test [2], 42 µM; in test [3], over 25 µM.
As for `COCc1cc(-c2cn(C)c3cnc(NC(N)=O)cc23)nc([C@]2(OC)CCOC2)c1` [US20190276450, Example 3], the EC50 is 0.035 µM in test [1], 18 µM in test [2] and over 25 µM in test [3].
Taken in the same sequence, the figures for `CO[C@@]1(c2cc(C(F)F)cc(-c3cn(C4COC4)c4cnc(NC(C)=O)cc34)n2)CCOC1` [US20190276450, Example 4.3] were 0.174 µM, 54 µM and over 25 µM.
On the same counts, the results for `COCc1cc(-c2cn(C)c3cnc(NC(=O)CO)cc23)nc([C@]2(OC)CCOC2)c1` [US20190276450, Example 24] are 0.092 µM, over 100 µM and over 25 µM.
On to `COC1(c2cccc(-c3cn(C)c4cnc(NC(N)=O)cc34)n2)COC1` [US20190276450, Example 1b.4], for which the EC50 was 0.142 µM in test [1], 7.6 µM in test [2] and over 25 µM in test [3].
On to `CO[C@@]1(c2cc(O[C@@H](C)CCO)cc(-c3cn(C)c4cnc(NC(C)=O)cc34)n2)CCOC1` [US20190276450, Example 14.4], for which the EC50 is 0.134 µM in test [1], 63 µM in test [2] and over 25 µM in test [3].
In the case of `CO[C@@]1(c2cccc(-c3cn([C@H]4C[C@H](C#N)C4)c4cnc(NC(C)=O)cc34)n2)CCOC1` [US20190276450, Example 17], the values for the EC50 in test [1], in test [2] and in test [3] were 0.031 µM, 27 µM and over 25 µM, respectively.
On the same counts, the results for `CO[C@H](C)COc1cc(-c2cn(C)c3cnc(NC(C)=O)cc23)nc([C@]2(OC)CCOC2)c1` [US20190276450, Example 22.10] are 0.092 µM, over 25 µM and over 25 µM.
As to `CO[C@@]1(c2cc(C(F)F)cc(-c3cn([C@H]4C[C@H](C#N)C4)c4cnc(NC(C)=O)cc34)n2)CCOC1` [US20190276450, Example 17.2], the values for the EC50 in test [1], in test [2] and in test [3] were 0.144 µM, 35 µM and over 25 µM, respectively.
Regarding `CC[C@]1(c2cc(C#N)cc(-c3cn(C)c4cnc(NC(C)=O)cc34)n2)CCOC1` [US20190276450, Example 2.11], the EC50 is 0.104 µM in test [1], 7.5 µM in test [2] and over 25 µM in test [3].
On the same counts, the results for `CO[C@@]1(c2cc(C)cc(-c3cn(C)c4cnc(NC(N)=O)cc34)n2)CCOC1` [US20190276450, Example 1b.2] are 0.025 µM, 21 µM and over 25 µM.
Taken in the same sequence, the figures for `COCCOc1cc(-c2cn(C)c3cnc(NC(C)=O)cc23)nc([C@]2(CO)CCOC2)c1` [US20190276450, Example 22.8] were 0.184 µM, 18.9 µM and over 25 µM.
Take `CO[C@@]1(c2cncc(-c3cn(C)c4cnc(NC(N)=O)cc34)n2)CCOC1` [US20190276450, Example 12]: the EC50 in test [1] was 0.244 µM; in test [2], 16.2 µM; in test [3], over 25 µM.
